Experimental data published in the supplement of paper PMC10627819.

Key:
S. pneumoniae D39V [1] = assay: Bliss interaction score (quartile over a dose matrix) (fitness difference); higher = more antagonism (negative = synergy)
Method in brief: (§1)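 Growth in each well was taken as OD595 at entry into stationary phase. Dividing by the plate's robust no-drug mean and capping at 1 gave fitness, and single-drug fitness was inferred from the combination data. The Bliss score, observed minus product-expected fitness, is summarised by quartiles over technical, biological and donor/recipient replicates.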

S. aureus DSM 20231 [2] = assay: as above
Method in brief: as §1

S. aureus Newman [3] = assay: as above
Method in brief: as §1

B. subtilis 168 [4] = assay: as above
Method in brief: as §1

S. pneumoniae D39V [5] = assay: fitness (endpoint OD595 vs no drug) (fraction); higher = more growth
Method in brief: (§2)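 Growth medium was TSB, LB Lennox or CY, and plates were kept at 37 °C. Inoculation was at OD595 0.01 in 384-well plates, at 30 µl per well or 55 µl for S. pneumoniae. OD595 was monitored every 30 min for 14 h and background-subtracted using the first reading. Fitness is the optical density on entering stationary phase divided by the robust mean of no-drug controls, with values capped at 1.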

S. aureus DSM 20231 [6] = assay: as above
Method in brief: as §2

S. aureus Newman [7] = assay: as above
Method in brief: as §2

B. subtilis 168 [8] = assay: as above
Method in brief: as §2
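Throughout, for Bliss interaction score (quartile over a dose matrix): first quartile when negative (synergy) and third quartile when positive (antagonism).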

CCC[C@@H]1C[C@@H](C(=O)N[C@@H]([C@H]2O[C@H](SC)[C@H](O)[C@@H](O)[C@H]2O)[C@H](C)Cl)N(C)C1 [Clindamycin] + Cc1ncc([N+](=O)[O-])n1CCO [Metronidazole]
Settings	Bliss interaction score
B. subtilis 168 [4]	0.0367
S. aureus DSM 20231 [2]	0.0542
S. aureus Newman [3]	0.0887
S. pneumoniae D39V [1]	0.0971

Settings	fitness
B. subtilis 168 [8], first compound 0.0625 µg/mL, partner 0.625 µg/mL	0.572
B. subtilis 168 [8], first compound 0.0625 µg/mL, partner 1.25 µg/mL	0.54
B. subtilis 168 [8], first compound 0.0625 µg/mL, partner 2.5 µg/mL	0.548
B. subtilis 168 [8], first compound 0.125 µg/mL, partner 0.625 µg/mL	0.403
B. subtilis 168 [8], first compound 0.125 µg/mL, partner 1.25 µg/mL	0.38
B. subtilis 168 [8], first compound 0.125 µg/mL, partner 2.5 µg/mL	0.373
B. subtilis 168 [8], first compound 0.25 µg/mL, partner 0.625 µg/mL	0.38
B. subtilis 168 [8], first compound 0.25 µg/mL, partner 1.25 µg/mL	0.381
B. subtilis 168 [8], first compound 0.25 µg/mL, partner 2.5 µg/mL	0.369
S. aureus DSM 20231 [6], first compound 0.125 µg/mL, partner 0.625 µg/mL	0.0566
S. aureus DSM 20231 [6], first compound 0.125 µg/mL, partner 1.25 µg/mL	0.0685
S. aureus DSM 20231 [6], first compound 0.125 µg/mL, partner 2.5 µg/mL	0.0748
S. aureus Newman [7], first compound 0.0312 µg/mL, partner 0.625 µg/mL	0.666
S. aureus Newman [7], first compound 0.0312 µg/mL, partner 1.25 µg/mL	0.801
S. aureus Newman [7], first compound 0.0312 µg/mL, partner 2.5 µg/mL	0.821
S. aureus Newman [7], first compound 0.0625 µg/mL, partner 1.25 µg/mL	0.425
S. aureus Newman [7], first compound 0.0625 µg/mL, partner 2.5 µg/mL	0.444
S. aureus Newman [7], first compound 0.125 µg/mL, partner 0.625 µg/mL	0.0588
S. aureus Newman [7], first compound 0.125 µg/mL, partner 1.25 µg/mL	0.056
S. aureus Newman [7], first compound 0.125 µg/mL, partner 2.5 µg/mL	0.0505
S. pneumoniae D39V [5], first compound 0.0125 µg/mL, partner 1.25 µg/mL	0.815
S. pneumoniae D39V [5], first compound 0.0125 µg/mL, partner 2.5 µg/mL	0.827
S. pneumoniae D39V [5], first compound 0.0125 µg/mL, partner 5 µg/mL	0.828
S. pneumoniae D39V [5], first compound 0.015 µg/mL, partner 1.073 µg/mL	0.956
S. pneumoniae D39V [5], first compound 0.015 µg/mL, partner 2.145 µg/mL	0.912
S. pneumoniae D39V [5], first compound 0.015 µg/mL, partner 4.29 µg/mL	0.841
S. pneumoniae D39V [5], first compound 0.025 µg/mL, partner 1.25 µg/mL	0.581
S. pneumoniae D39V [5], first compound 0.025 µg/mL, partner 2.5 µg/mL	0.553
S. pneumoniae D39V [5], first compound 0.025 µg/mL, partner 5 µg/mL	0.518
S. pneumoniae D39V [5], first compound 0.03 µg/mL, partner 1.073 µg/mL	0.833
S. pneumoniae D39V [5], first compound 0.03 µg/mL, partner 2.145 µg/mL	0.839
S. pneumoniae D39V [5], first compound 0.03 µg/mL, partner 4.29 µg/mL	0.771
S. pneumoniae D39V [5], first compound 0.05 µg/mL, partner 1.25 µg/mL	0.269
S. pneumoniae D39V [5], first compound 0.05 µg/mL, partner 2.5 µg/mL	0.242
S. pneumoniae D39V [5], first compound 0.05 µg/mL, partner 5 µg/mL	0.246
S. pneumoniae D39V [5], first compound 0.06 µg/mL, partner 1.073 µg/mL	0.61
S. pneumoniae D39V [5], first compound 0.06 µg/mL, partner 2.145 µg/mL	0.682
S. pneumoniae D39V [5], first compound 0.06 µg/mL, partner 4.29 µg/mL	0.642

fitness, one replicate
Settings	first compound 0.0039 µg/mL	first compound 0.0078 µg/mL	first compound 0.0156 µg/mL	first compound 0.0312 µg/mL	first compound 0.0625 µg/mL	first compound 0.125 µg/mL
B. subtilis 168 [8], partner 0.625 µg/mL	0.918	0.528	0.83	–	–	–
B. subtilis 168 [8], partner 1.25 µg/mL	0.984	0.804	0.842	–	–	–
B. subtilis 168 [8], partner 2.5 µg/mL	0.907	0.547	0.867	–	–	–
S. aureus Newman [7], partner 0.781 µg/mL	–	–	–	0.71	0.533	0.0936
S. aureus Newman [7], partner 1.562 µg/mL	–	–	–	0.72	0.582	0.13
S. aureus Newman [7], partner 3.124 µg/mL	–	–	–	0.688	0.595	0.113

CCC[C@@H]1C[C@@H](C(=O)N[C@@H]([C@H]2O[C@H](SC)[C@H](O)[C@@H](O)[C@H]2O)[C@H](C)Cl)N(C)C1 [Clindamycin] + Cc1onc(-c2ccccc2)c1C(=O)N[C@@H]1C(=O)N2[C@@H]1SC(C)(C)[C@@H]2C(=O)O [Oxacillin]
Settings	Bliss interaction score
B. subtilis 168 [4]	0.0308
S. aureus DSM 20231 [2]	0.0814
S. aureus Newman [3]	0.09
S. pneumoniae D39V [1]	0.105

Settings	fitness
B. subtilis 168 [8], first compound 0.0625 µg/mL, partner 0.002 µg/mL	0.546
B. subtilis 168 [8], first compound 0.0625 µg/mL, partner 0.004 µg/mL	0.531
B. subtilis 168 [8], first compound 0.0625 µg/mL, partner 0.008 µg/mL	0.524
B. subtilis 168 [8], first compound 0.125 µg/mL, partner 0.002 µg/mL	0.396
B. subtilis 168 [8], first compound 0.125 µg/mL, partner 0.004 µg/mL	0.367
B. subtilis 168 [8], first compound 0.125 µg/mL, partner 0.008 µg/mL	0.367
B. subtilis 168 [8], first compound 0.25 µg/mL, partner 0.002 µg/mL	0.382
B. subtilis 168 [8], first compound 0.25 µg/mL, partner 0.004 µg/mL	0.372
B. subtilis 168 [8], first compound 0.25 µg/mL, partner 0.008 µg/mL	0.361
S. aureus DSM 20231 [6], first compound 0.0312 µg/mL, partner 0.0312 µg/mL	0.486
S. aureus DSM 20231 [6], first compound 0.0312 µg/mL, partner 0.0625 µg/mL	0.355
S. aureus DSM 20231 [6], first compound 0.0625 µg/mL, partner 0.0156 µg/mL	0.0861
S. aureus DSM 20231 [6], first compound 0.0625 µg/mL, partner 0.0312 µg/mL	0.0909
S. aureus DSM 20231 [6], first compound 0.0625 µg/mL, partner 0.0625 µg/mL	0.0694
S. aureus DSM 20231 [6], first compound 0.125 µg/mL, partner 0.0156 µg/mL	0.0621
S. aureus DSM 20231 [6], first compound 0.125 µg/mL, partner 0.0312 µg/mL	0.0625
S. aureus DSM 20231 [6], first compound 0.125 µg/mL, partner 0.0625 µg/mL	0.0779
S. aureus Newman [7], first compound 0.0312 µg/mL, partner 0.0156 µg/mL	0.71
S. aureus Newman [7], first compound 0.0312 µg/mL, partner 0.0312 µg/mL	0.673
S. aureus Newman [7], first compound 0.0312 µg/mL, partner 0.0625 µg/mL	0.557
S. aureus Newman [7], first compound 0.0625 µg/mL, partner 0.0625 µg/mL	0.31
S. aureus Newman [7], first compound 0.125 µg/mL, partner 0.0156 µg/mL	0.189
S. aureus Newman [7], first compound 0.125 µg/mL, partner 0.0312 µg/mL	0.105
S. aureus Newman [7], first compound 0.125 µg/mL, partner 0.0625 µg/mL	0.0973
S. pneumoniae D39V [5], first compound 0.0125 µg/mL, partner 0.005 µg/mL	0.754
S. pneumoniae D39V [5], first compound 0.0125 µg/mL, partner 0.01 µg/mL	0.786
S. pneumoniae D39V [5], first compound 0.0125 µg/mL, partner 0.02 µg/mL	0.804
S. pneumoniae D39V [5], first compound 0.015 µg/mL, partner 0.01 µg/mL	0.854
S. pneumoniae D39V [5], first compound 0.015 µg/mL, partner 0.02 µg/mL	0.817
S. pneumoniae D39V [5], first compound 0.015 µg/mL, partner 0.04 µg/mL	0.546
S. pneumoniae D39V [5], first compound 0.025 µg/mL, partner 0.005 µg/mL	0.561
S. pneumoniae D39V [5], first compound 0.025 µg/mL, partner 0.01 µg/mL	0.521
S. pneumoniae D39V [5], first compound 0.025 µg/mL, partner 0.02 µg/mL	0.524
S. pneumoniae D39V [5], first compound 0.03 µg/mL, partner 0.01 µg/mL	0.7
S. pneumoniae D39V [5], first compound 0.03 µg/mL, partner 0.02 µg/mL	0.677
S. pneumoniae D39V [5], first compound 0.03 µg/mL, partner 0.04 µg/mL	0.423
S. pneumoniae D39V [5], first compound 0.05 µg/mL, partner 0.005 µg/mL	0.278
S. pneumoniae D39V [5], first compound 0.05 µg/mL, partner 0.01 µg/mL	0.291
S. pneumoniae D39V [5], first compound 0.05 µg/mL, partner 0.02 µg/mL	0.29

fitness, B. subtilis 168 [8], one replicate
Settings	first compound 0.0039 µg/mL	first compound 0.0078 µg/mL	first compound 0.0156 µg/mL	first compound 0.0625 µg/mL	first compound 0.125 µg/mL	first compound 0.25 µg/mL
partner 0.0078 µg/mL	0.953	0.903	0.828	–	–	–
partner 0.0155 µg/mL	0.963	0.897	0.805	–	–	–
partner 0.031 µg/mL	0.947	0.865	0.822	–	–	–
partner 0.075 µg/mL	–	–	–	0.237	0.0774	0.0582
partner 0.15 µg/mL	–	–	–	0.063	0.066	0.0705
partner 0.3 µg/mL	–	–	–	0.0546	0.0304	0.0517

CCC[C@@H]1C[C@@H](C(=O)N[C@@H]([C@H]2O[C@H](SC)[C@H](O)[C@@H](O)[C@H]2O)[C@H](C)Cl)N(C)C1 [Clindamycin] + O=C(O[C@@H]1Cc2c(O)cc(O)cc2O[C@@H]1c1cc(O)c(O)c(O)c1)c1cc(O)c(O)c(O)c1 [EGCG]
Settings	Bliss interaction score
B. subtilis 168 [4]	0.136
S. aureus DSM 20231 [2]	0.0371
S. aureus Newman [3]	-0.0691
S. pneumoniae D39V [1]	-0.108

fitness
Settings	partner 6.25 µg/mL	partner 12.5 µg/mL	partner 25 µg/mL	partner 50 µg/mL
B. subtilis 168 [8], first compound 0.25 µg/mL	0.356	0.337	0.119	–
S. aureus DSM 20231 [6], first compound 0.0312 µg/mL	–	0.485	0.49	0.416
S. aureus DSM 20231 [6], first compound 0.0625 µg/mL	–	–	0.172	0.115
S. aureus DSM 20231 [6], first compound 0.125 µg/mL	–	0.0823	0.0417	0.0383
S. aureus Newman [7], first compound 0.0312 µg/mL	–	0.603	0.587	0.598
S. aureus Newman [7], first compound 0.125 µg/mL	–	–	0.0771	0.046
S. pneumoniae D39V [5], first compound 0.0125 µg/mL	–	0.703	0.686	0.605
S. pneumoniae D39V [5], first compound 0.015 µg/mL	–	0.734	0.661	0.538
S. pneumoniae D39V [5], first compound 0.025 µg/mL	–	0.466	0.405	0.392
S. pneumoniae D39V [5], first compound 0.03 µg/mL	–	0.466	0.414	0.3
S. pneumoniae D39V [5], first compound 0.05 µg/mL	–	0.173	0.168	0.178
S. pneumoniae D39V [5], first compound 0.06 µg/mL	–	0.312	0.315	0.22

fitness, B. subtilis 168 [8], one replicate
Settings	first compound 0.0039 µg/mL	first compound 0.0078 µg/mL	first compound 0.0156 µg/mL
partner 6.25 µg/mL	0.986	0.862	0.85
partner 12.5 µg/mL	0.511	0.402	0.383
partner 25 µg/mL	0.401	0.362	0.374
